What was measured:
Type in all cases: in vivo
Plutella xylostella = assay: Action on Diamond Back Moth (Plutella xylostella), microtiter plates, insect diet, eggs; settings: 800 ppm; egg and larval mortality; 5 days
Description: Example B8: Action on Diamond Back Moth (Plutella xylostella)
For evaluating control of diamond back moth (Plutella xylostella) the test unit consisted of 96-well-microtiter plates containing an insect diet and 15-25 P. xylostella eggs. The compounds or mixtures were formulated using a solution containing 75% water and 25% DMSO. Different concentrations of formulated compounds or mixtures were sprayed onto the insect diet at 5 μl, using a custom-built micro atomizer, at two replications. For experimental mixtures in these tests identical volumes of both mixing partners at the desired concentrations respectively, were mixed together. After application, microtiter plates were incubated at 28±1 °C, 80±5% RH for 5 days. Egg and larval mortality was then visually assessed.

Aedes aegypti = assay: whole plant or invertebrate; settings: 800 ppm; larvae; 2 days
Summary of the method: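 Visual larval mortality was assessed 2 days after treatment (28±1 °C, 80±5% RH). Formulations of compounds or mixtures (75% water/25% DMSO) were applied by micro-atomizer onto diet of 5-15 newly hatched larvae per water-filled well, two replicates per concentration.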

Anthonomus grandis = assay: Action on Boll Weevil (Anthonomus grandis); settings: 800 ppm; egg and larval mortality; 5 days
Summary of the method: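 Diet in 96-well plates, seeded with 5-10 A. grandis eggs, received a spray of formulated compound (25% DMSO in water) at a range of concentrations, duplicated. Mortality of eggs and larvae was judged by eye after 5 days at about 25±1 °C, 75±5% relative humidity.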

Heliothis virescens = assay: Action on Tobacco Budworm (Heliothis virescens); settings: 800 ppm; egg and larval mortality; 5 days
Summary of the method: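 Eggs (15-25 per well) on diet were held 5 days at about 28±1 °C, 80±5% RH, then egg and larval mortality was scored by eye. Beforehand the diet had been sprayed with compound dilutions formulated in water/DMSO 75:25 v/v, in two replicates.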

Spodoptera eridania = assay: Action on Southern Armyworm (Spodoptera eridania), 2nd Instar Larvae; settings: 300 ppm; 2nd instar larvae; 4 days after treatment
Summary of the method: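 2nd-instar Spodoptera eridania larvae (about 10–11 per pot) confined on sprayed, dried Lima bean plants (1st true leaf stage) in sealed bags. Spray solutions: acetone/water 1:1 plus 0.01% surfactant. Held 4 days near 25 °C, 20–40% RH; assessed for mortality and feeding reduction against untreated controls.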

| Compound | mortality in comparison with untreated controls (Plutella xylostella) | mortality in comparison with untreated controls (Aedes aegypti) | mortality in comparison with untreated controls (Anthonomus grandis) | mortality in comparison with untreated controls (Heliothis virescens) | mortality in comparison with untreated controls (Spodoptera eridania) |
| --- | --- | --- | --- | --- | --- |
| Cc1ccc(C(C)C)c(N2C(=O)CSC2=NC(=O)Nc2ccc(-n3cc(NC(=O)c4ccc(Cl)nc4)c(C)n3)cc2)c1 [Example C-66] | at least 75% | at least 50% | at least 75% | at least 75% |  |
| Cc1ccc(C(C)C)c(N2C(=O)CSC2=NC(=O)Nc2ccc(-n3nc(C)c(NC(=O)c4ccc(Br)c(C#N)c4)c3C)cc2)c1 [Example C-121] | at least 75% | at least 50% | at least 75% |  | at least 75% |
| Cc1ccc(C(C)C)c(N2C(=O)CSC2=NC(=O)Nc2ccc(-n3nc(C)c(NC(=O)c4ccc(C(Cl)Cl)cc4)c3C)cc2)c1 [Example C-122] | at least 75% |  | at least 75% |  |  |
| Cc1ccc(C(C)C)c(N2C(=O)CS/C2=N\C(=O)Nc2ccc(-n3cc(NC(=O)c4ccc(Cl)cc4Cl)c(C)n3)cc2)c1 [Example C-27] | at least 75% |  | at least 75% | at least 75% | at least 75% |
| Cc1ccc(C(C)C)c(N2C(=O)CSC2=NC(=O)Nc2ccc(-n3nc(C)c(NC(=O)c4ccc(Cl)cc4)c3C)cc2)c1 [Example C-111] | at least 75% | at least 50% | at least 75% | at least 75% | at least 75% |
| Cc1ccc(C(C)C)c(N2C(=O)CSC2=NC(=O)Nc2ccc(-n3cc(NC(=O)c4ccc(N=S(C)(C)=O)cc4)c(C)n3)cc2)c1 [Example C-55] | at least 75% |  | at least 75% |  |  |
| Cc1ccc(C(C)C)c(N2C(=O)CSC2=NC(=O)Nc2ccc(-n3nc(C)c(NC(=O)c4ccc(Cl)c(Cl)c4)c3C)cc2)c1 [Example C-115] | at least 75% | at least 50% | at least 75% | at least 75% | at least 75% |
| Cc1ccc(C(C)C)c(N2C(=O)CSC2=NC(=O)Nc2ccc(-n3cc(NC(=O)c4ccc([N+](=O)[O-])cc4)c(C)n3)cc2)c1 [Example C-54] | at least 75% | at least 50% | at least 75% | at least 75% | at least 75% |
| Cc1ccc(C(C)C)c(N2C(=O)CSC2=NC(=O)Nc2ccc(-n3cc(NC(=O)c4ccc(OC(C)C)cc4)c(C)n3)cc2)c1 [Example C-48] | at least 75% |  |  | at least 75% | at least 75% |
| Cc1ccc(C(C)C)c(N2C(=O)CSC2=NC(=O)Nc2ccc(-n3nc(C)c(NC(=O)c4ccc(C#N)cc4F)c3C)cc2)c1 [Example C-107] | at least 75% | at least 50% | at least 75% | at least 75% | at least 75% |
| Cc1ccc(C(C)C)c(N2C(=O)CSC2=NC(=O)Nc2ccc(-n3nc(C)c(NC(=O)c4ccc(F)c(F)c4)c3C)cc2)c1 [Example C-114] | at least 75% | at least 50% | at least 75% | at least 75% | at least 75% |
| Cc1ccc(C(C)C)c(N2C(=O)CS/C2=N\C(=O)Nc2ccc(-n3cc(NC(=O)c4ccc(Cl)cc4)c(C)n3)cc2)c1 [Example C-29] | at least 75% | at least 50% | at least 75% | at least 75% | at least 75% |
| Cc1ccc(C(C)C)c(N2C(=O)CSC2=NC(=O)Nc2ccc(-n3nc(C)c(NC(=O)c4ccc(F)c(Cl)c4)c3C)cc2)c1 [Example C-113] | at least 75% | at least 50% | at least 75% | at least 75% |  |
| Cc1ccc(C(C)C)c(N2C(=O)CSC2=NC(=O)Nc2ccc(-n3cc(NC(=O)c4ccc(C5CCC5)cc4)c(C)n3)cc2)c1 [Example C-58] | at least 75% |  | at least 75% | at least 75% |  |
| Cc1ccc(C(C)C)c(N2C(=O)CS/C2=N\C(=O)Nc2cc(Cl)c(-n3nc(C)c(NC(=O)c4ccc(OC(F)(F)F)cc4)c3C)cc2C)c1 [Example C-98] | at least 75% | at least 50% | at least 75% | at least 75% | at least 75% |
| Cc1ccc(C(C)C)c(N2C(=O)CSC2=NC(=O)Nc2ccc(-n3cc(NC(=O)c4ccc(C(C)(C)C#N)cc4)c(C)n3)cc2)c1 [Example C-56] | at least 75% |  |  | at least 75% | at least 75% |
| Cc1ccc(C(C)C)c(N2C(=O)CSC2=NC(=O)Nc2ccc(-n3nc(C)c(NC(=O)c4ccc(OC(F)(F)F)cc4)c3C)c(Cl)c2)c1 [Example C-45] | at least 75% | at least 50% | at least 75% | at least 75% | at least 75% |
| Cc1ccc(C(C)C)c(N2C(=O)CSC2=NC(=O)Nc2ccc(-n3cc(NC(=O)c4ccc(S(C)(=O)=O)cn4)c(C)n3)cc2)c1 [Example C-38] | at least 75% |  | at least 75% | at least 75% | at least 75% |
| Cc1ccc(C(C)C)c(N2C(=O)CSC2=NC(=O)Nc2ccc(-n3nc(C)c(NC(=O)c4ccc(C#N)c(F)c4)c3C)cc2)c1 [Example C-108] | at least 75% | at least 50% | at least 75% | at least 75% | at least 75% |
| Cc1ccc(C(C)C)c(N2C(=O)CS/C2=N\C(=O)Nc2ccc(-n3nc(C)c(NC(=O)c4ccc(Cl)c(Cl)c4)c3C)cc2Cl)c1 [Example C-102] | at least 75% | at least 50% | at least 75% | at least 75% | at least 75% |
| Cc1ccc(C(C)C)c(N2C(=O)CSC2=NC(=O)Nc2ccc(-n3nc(C)c(NC(=O)c4ccc(Cl)c(F)c4)c3C)cc2)c1 [Example C-109] | at least 75% | at least 50% | at least 75% | at least 75% | at least 75% |
| Cc1ccc(C(C)C)c(N2C(=O)CSC2=NC(=O)Nc2ccc(-n3cc(NC(=O)c4cncnc4)c(C)n3)cc2)c1 [Example C-68] | at least 75% |  | at least 75% | at least 75% | at least 75% |
| Cc1ccc(C(C)C)c(N2C(=O)CSC2=NC(=O)Nc2ccc(-n3cc(NC(=O)c4ccc(C5COC5)cc4)c(C)n3)cc2)c1 [Example C-52] | at least 75% |  | at least 75% | at least 75% |  |
| Cc1ccc(C(C)C)c(NC(=S)NC(=O)Nc2ccc(-n3cc(NC(=O)c4ccc(OC(F)(F)F)cc4)c(C)n3)cc2)c1 [Example C-127] | at least 75% |  | at least 75% | at least 75% | at least 75% |

Reference: patent publication US20260354380A1, “PYRAZOLO PESTICIDAL COMPOUNDS” (BASF SE, priority 2022, published 2026)
